Data published in PMC13327620, “A Deep‐Red‐Absorbing Osmium(II) Complex as a Photosensitizer for Photodynamic Therapy Inducing Immunogenic Cell Death” (Angewandte Chemie (International Ed. in English), 2026).
Read-outs that look alike come from different tables or passages of the source.

Columns and labels:
[1] = Photostability by UV-vis absorption in PBS with 10% FBS; type: physicochemical; details: 10% FBS in PBS, 50 μM
From the text: Photostability is a crucial parameter for PSs, as it has a significant impact on their phototoxicity. Based on the results of our in vitro phototoxicity studies, and in view of future in vivo experiments, we decided to investigate the stability of Os2 and Ce6 under deep‐red illumination. Therefore, we monitored the UV–vis absorption spectra of Os2 and Ce6 in biological media (10% FBS in PBS, phosphate‐buffered saline) using a 740 nm excitation wavelength for one hour and a 770 nm excitation wavelength for 2 h, with the duration of light exposure kept consistent with in vitro phototoxicity tests. […]
software Fluofit (PicoQuant GmbH, BERLIN, Germany) based on iterative reconvolution using a Levensberg- M arquandt alg oritm, enabling the obtention of multi-exponential profiles (m ainly one or two exponenti als in our cases ).
Compound Os2 and Ce6 were dissolved in biologically relevant media (PBS solution with 10% FBS) at 50 μ M from the stock solution (10 m M in DMSO). The UV -Vi s spectrum of each complex was recorded from 300 nm to 900 nm at 10- or 20- minutes intervals using BioTek Cytation 5 Cell Imaging Multimode Reader (Agilent […]
The hydrodynamic diameter was determined using dynamic light scattering (DLS, Malvern ZetaSizer Nano ZS) at 25 ℃ . PBS with 10% FBS solutions were filtered through a 0.22 µM membrane before use. […]

[2] = tested on: human fibroblast cells (MRC-5); assay: Resazurin cell viability assay, dark toxicity; type: cell-based; details: MRC5, MRC-5, dark
Experimental: (§1) (100 U ml−1), streptomycin (100 U ml−1), and 1% L-glutamine. The murine fibrosarcom a (MCA205) cells were cultured in RPMI 1640 medium with 10% fetal bovine serum (FBS), penicillin (100 U ml−1), streptomycin (100 U ml−1), and 1% L-glutamine. All cells were incubated at 37 °C in a humidified atmosphere with 5 % CO2.
(§2) Normoxia. The in vitro viability of cells exposed to the complexes was determined using a resazurin assay. C ells were seeded in 96-well plates at densities of 4,000 cells/well for CT26, MC A205 and U-87 MG cells, and 8,000 cells/well for MRC-5 and NIH/3T3 cells. A fter 24 h of growth at 37 °C wit h 5% CO2, the medium was replaced with fresh medium containing various concentrations of the compounds . Following a 4- h incubation in the dark, the medium was refres hed , and the plates were exposed to irradiation usinga LUM OS -BIO photoreactor (At las Photonics).N on- ir rad iated plates were similarly refr eshed with medium and kept in the dark for the same duration. After a 40- h r ecov ery period, a f reshly pr epar ed resazurin solution (0.2 mg/mL) was added to each well, and the plates were left in the dark for 4 h before analysis on a B i o Te k Cytation 5 Cell Imaging Multimode Reader (Agil ent Technologies).
(§3) Hypoxia.Hypoxia cells were from well -grown normoxia cells and cultured for at least two weeks before use. […]

[3] = tested on: mouse fibroblast cells (NIH/3T3); assay: Resazurin cell viability assay, dark toxicity; type: cell-based; details: NIH3T3, NIH/3T3, dark
Experimental: as §1, §2, §3

[4] = tested on: mouse colon adenocarcinoma (CT26) cells; assay: Resazurin cell viability assay, (photo)cytotoxicity, normoxia; type: cell-based
Experimental: Given that most ICD studies focus on breast, non‐small cell lung carcinoma, and colon cancer, and since ICD was first discovered in mouse colon cancer cells (CT26), we initially tested our compounds on CT26 cells. Cells were incubated with nine different concentrations (mainly from 0.01 to 100 µM) of the compounds for 4 h in the dark. Then, the diluted solutions containing the compounds were replaced by fresh medium, and the cells were either illuminated or kept in the dark for 1 h more. After 2 days, IC50 values (concentration of the agent inhibiting cell growth by 50%) were determined with the resazurin assay, using chlorin e6 (Ce6) and protoporphyrin IX (PpIX) for comparison (Figure S10). The clinically approved chlorin mixture Radachlorin contains ∼80% Ce6, while 5‐aminolevulinic acid (Ameluz and Levulan) and methyl 5‐aminolevulinate (Metvix and Metvixia) serve as precursors of PpIX. Therefore, Ce6 and PpIX were used for comparison purposes.
(100 U ml−1), streptomycin (100 U ml−1), and 1% L-glutamine. […]
All cells were incubated at 37 °C in a humidified atmosphere with 5 % CO2.
as §2, with “Technologies). […]” for “Technologies).”

C=Cc1c(C)c2cc3nc(c(CC(=O)O)c4[nH]c(cc5nc(cc1[nH]2)C(C)=C5CC)c(C)c4C(=O)O)[C@@H](CCC(=O)O)[C@@H]3C [Ce6, chlorin e6]
Photostability (UV-vis absorption spectrum) ([1]; 740 nm excitation, 1 h, 12.60 J/cm2): decreased by nearly half after 50 min
Photostability (UV-vis absorption spectrum) ([1]; 770 nm excitation, 2 h, 15.30 J/cm2): did not change
IC50 [2]: > 100 µM
IC50 [3]: > 100 µM
PI ([4]; CT26, 480 nm): >38
PI ([4]; CT26, 510 nm): >70
PI ([4]; CT26, 540 nm): >30
PI ([4]; CT26, 595 nm): >20
PI (phototoxicity index, IC50 dark/IC50 light) ([4]; CT26, 620 nm): >51
PI ([4]; CT26, 645 nm): >25
PI ([4]; CT26, 670 nm): >51
PI ([4]; CT26, 740 nm): >19
PI ([4]; CT26, 770 nm): >4
IC50 ([4]; CT26, 770 nm, FWHM 12.5 nm, 15.30 J/cm^2): almost non‐phototoxic
IC50 ([4]; Mus musculus, CT26, CT26, dark, normoxia, read-out: IC50 Dark): > 100 µM
IC50 ([4]; Mus musculus, CT26, light or radiation study, 1 h, CT26, 620 nm, 1.88 mW/cm^2, 60 min, normoxia, read-out: IC50 620 nm (1 h, 6.75 J/cm^2)): 1.98 ± 0.11 µM
IC50 ([4]; Mus musculus, CT26, light or radiation study, CT26, 480 nm, FWHM 10 nm, 3.38 J/cm^2, read-out: IC50): 2.64 ± 0.42 µM
IC50 ([4]; Mus musculus, CT26, light or radiation study, CT26, 510 nm, FWHM 15 nm, 2.44 J/cm^2, read-out: IC50): 1.43 ± 0.1 µM
IC50 ([4]; Mus musculus, CT26, light or radiation study, CT26, 540 nm, FWHM 15 nm, 9.00 J/cm^2, read-out: IC50): 3.33 ± 0.44 µM
IC50 ([4]; Mus musculus, CT26, light or radiation study, CT26, 595 nm, FWHM 10 nm, 3.38 J/cm^2, read-out: IC50): 5.1 ± 1.44 µM
IC50 ([4]; Mus musculus, CT26, light or radiation study, CT26, 645 nm, FWHM 10 nm, 9.00 J/cm^2, read-out: IC50): 3.93 ± 0.67 µM
IC50 ([4]; Mus musculus, CT26, light or radiation study, CT26, 670 nm, FWHM 10 nm, 13.50 J/cm^2, read-out: IC50): 1.97 ± 0.42 µM
IC50 ([4]; Mus musculus, CT26, light or radiation study, CT26, 740 nm, FWHM 10 nm, 12.60 J/cm^2, read-out: IC50): 5.27 ± 0.46 µM
IC50 ([4]; Mus musculus, CT26, light or radiation study, CT26, 770 nm, FWHM 12.5 nm, 15.30 J/cm^2, read-out: IC50): 25.4 ± 3.72 µM
